According to US20230381192A1, “METHODS FOR CONTROLLING AND PREDICTING RECOVERY AFTER NMBA ADMINISTRATION” (Cornell University, priority 2020, published 2023):
Read-outs that look alike come from different tables or passages of the source.

Assay: Phase I pharmacokinetics after single IV bolus
Type: in vivo
Conditions: both sexes, human, plasma, iv
Method: (Abstract available in the final supplement of the Journal of Anesthesia and Analgesia, May 2020 (Volume 30, Issue pages 73-74), which is incorporated herein by reference. Healthy volunteers (n=34) aged 18 to 55 of either gender gave informed consent to an 1RB-approved Phase I protocol, NMB was measured by mechanomyography during sevoflurane (0.5 MAC)/N20 (70%) anesthesia. Each volunteer received a single IV bolus of RP1000,

`COc1ccc(C[C@@H]2c3cc(OC)c(OC)cc3CC[N@@+]2(C)CCCOC(=O)/C=C/C(=O)OCCC[N@+]2(C)CCc3cc(OC)c(OC)cc3[C@H]2Cc2ccc(OC)c(OC)c2)cc1OC.[Cl-].[Cl-]` [RP1000] showed a Cmax (0.04 mg/kg, single IV bolus 0.04 mg/kg (n = 6), read-out: Cmax, Geometric Mean) of 2360 ng/mL, a Cmax (0.04 mg/kg, single IV bolus 0.04 mg/kg (n = 6), read-out: Cmax, Mean) of 2540 ng/mL and a Vd (0.04 mg/kg, single IV bolus 0.04 mg/kg (n = 6), read-out: Vss (volume at steady state), Geometric Mean) of 9.33 L. The Vd (0.04 mg/kg, single IV bolus 0.04 mg/kg (n = 6), read-out: Vss (volume at steady state), Mean) was 9.54 L, the half-life (0.04 mg/kg, single IV bolus 0.04 mg/kg (n = 6), read-out: t1/2 (terminal elimination half-life), Geometric Mean) was 27.4 min and the half-life (0.04 mg/kg, single IV bolus 0.04 mg/kg (n = 6), read-out: t1/2 (terminal elimination half-life), Mean (SD)) was 29 min. It also gave an AUC(0-t) (0.06 mg/kg, single IV bolus 0.06 mg/kg (n = 6), read-out: AUClast, Geometric Mean (converted)) of 160 ng·h/mL, an AUC(0-t) (0.06 mg/kg, single IV bolus 0.06 mg/kg (n = 6), read-out: AUClast, Mean (converted)) of 153 ng·h/mL and a clearance (0.06 mg/kg, single IV bolus 0.06 mg/kg (n = 6), read-out: CL (clearance), Geometric Mean) of 399 mL/min. It also gave a clearance (0.06 mg/kg, single IV bolus 0.06 mg/kg (n = 6), read-out: CL (clearance), Mean (SD)) of 409 mL/min, a Cmax (0.06 mg/kg, single IV bolus 0.06 mg/kg (n = 6), read-out: Cmax, Geometric Mean) of 2600 ng/mL and a Cmax (0.06 mg/kg, single IV bolus 0.06 mg/kg (n = 6), read-out: Cmax, Mean) of 3070 ng/mL. For the same compound, the Vd (0.06 mg/kg, single IV bolus 0.06 mg/kg (n = 6), read-out: Vss (volume at steady state), Geometric Mean) was 8.8 L, the Vd (0.06 mg/kg, single IV bolus 0.06 mg/kg (n = 6), read-out: Vss (volume at steady state), Mean) was 8.92 L and the half-life (0.06 mg/kg, single IV bolus 0.06 mg/kg (n = 6), read-out: t1/2 (terminal elimination half-life), Geometric Mean) was 26.3 min. The half-life (0.06 mg/kg, single IV bolus 0.06 mg/kg (n = 6), read-out: t1/2 (terminal elimination half-life), Mean (SD)) was 26 min, the AUC(0-t) (0.08 mg/kg, single IV bolus 0.08 mg/kg (n = 6), read-out: AUClast, Geometric Mean (converted)) was 248 ng·h/mL and the AUC(0-t) (0.08 mg/kg, single IV bolus 0.08 mg/kg (n = 6), read-out: AUClast, Mean (converted)) was 235 ng·h/mL. The clearance (0.08 mg/kg, single IV bolus 0.08 mg/kg (n = 6), read-out: CL (clearance), Geometric Mean) was 387 mL/min, the clearance (0.08 mg/kg, single IV bolus 0.08 mg/kg (n = 6), read-out: CL (clearance), Mean (SD)) was 390 mL/min and the Cmax (0.08 mg/kg, single IV bolus 0.08 mg/kg (n = 6), read-out: Cmax, Geometric Mean) was 3610 ng/mL. The Cmax (0.08 mg/kg, single IV bolus 0.08 mg/kg (n = 6), read-out: Cmax, Mean) was 4040 ng/mL, the Vd (0.08 mg/kg, single IV bolus 0.08 mg/kg (n = 6), read-out: Vss (volume at steady state), Geometric Mean) was 9.58 L and the Vd (0.08 mg/kg, single IV bolus 0.08 mg/kg (n = 6), read-out: Vss (volume at steady state), Mean) was 9.65 L. It also gave a half-life (0.08 mg/kg, single IV bolus 0.08 mg/kg (n = 6), read-out: t1/2 (terminal elimination half-life), Geometric Mean) of 27 min, a half-life (0.08 mg/kg, single IV bolus 0.08 mg/kg (n = 6), read-out: t1/2 (terminal elimination half-life), Mean (SD)) of 27 min and an AUC(0-t) (0.1 mg/kg, single IV bolus 0.10 mg/kg (n = 6), read-out: AUClast, Geometric Mean (converted)) of 303 ng·h/mL. For the same compound, the AUC(0-t) (0.1 mg/kg, single IV bolus 0.10 mg/kg (n = 6), read-out: AUClast, Mean (converted)) was 291 ng·h/mL, the clearance (0.1 mg/kg, single IV bolus 0.10 mg/kg (n = 6), read-out: CL (clearance), Geometric Mean) was 438 mL/min and the clearance (0.1 mg/kg, single IV bolus 0.10 mg/kg (n = 6), read-out: CL (clearance), Mean (SD)) was 443 mL/min. The Cmax (0.1 mg/kg, single IV bolus 0.10 mg/kg (n = 6), read-out: Cmax, Geometric Mean) was 5020 ng/mL, the Cmax (0.1 mg/kg, single IV bolus 0.10 mg/kg (n = 6), read-out: Cmax, Mean) was 5270 ng/mL and the Vd (0.1 mg/kg, single IV bolus 0.10 mg/kg (n = 6), read-out: Vss (volume at steady state), Geometric Mean) was 9.02 L. The Vd (0.1 mg/kg, single IV bolus 0.10 mg/kg (n = 6), read-out: Vss (volume at steady state), Mean) was 9.12 L, the half-life (0.1 mg/kg, single IV bolus 0.10 mg/kg (n = 6), read-out: t1/2 (terminal elimination half-life), Geometric Mean) was 23.9 min and the half-life (0.1 mg/kg, single IV bolus 0.10 mg/kg (n = 6), read-out: t1/2 (terminal elimination half-life), Mean (SD)) was 24 min. It also gave an AUC(0-t) (0.14 mg/kg, single IV bolus 0.14 mg/kg (n = 4), read-out: AUClast, Geometric Mean (converted)) of 507 ng·h/mL, an AUC(0-t) (0.14 mg/kg, single IV bolus 0.14 mg/kg (n = 4), read-out: AUClast, Mean (converted)) of 481 ng·h/mL and a clearance (0.14 mg/kg, single IV bolus 0.14 mg/kg (n = 4), read-out: CL (clearance), Geometric Mean) of 366 mL/min. For the same compound, the clearance (0.14 mg/kg, single IV bolus 0.14 mg/kg (n = 4), read-out: CL (clearance), Mean (SD)) was 368 mL/min, the Cmax (0.14 mg/kg, single IV bolus 0.14 mg/kg (n = 4), read-out: Cmax, Geometric Mean) was 9120 ng/mL and the Cmax (0.14 mg/kg, single IV bolus 0.14 mg/kg (n = 4), read-out: Cmax, Mean) was 10300 ng/mL. The Vd (0.14 mg/kg, single IV bolus 0.14 mg/kg (n = 4), read-out: Vss (volume at steady state), Geometric Mean) was 7.84 L, the Vd (0.14 mg/kg, single IV bolus 0.14 mg/kg (n = 4), read-out: Vss (volume at steady state), Mean) was 7.96 L and the half-life (0.14 mg/kg, single IV bolus 0.14 mg/kg (n = 4), read-out: t1/2 (terminal elimination half-life), Geometric Mean) was 24.8 min. The half-life (0.14 mg/kg, single IV bolus 0.14 mg/kg (n = 4), read-out: t1/2 (terminal elimination half-life), Mean (SD)) was 25 min.
